Reference: US20140127705A1, “METHOD FOR SCREENING SUBSTANCES HAVING WEIGHT-REGULATING ACTION” (priority 2011, published 2014)

Test system: 3T3-L1 cells
Experiment: Induction of adipocyte differentiation in 3T3-L1 cells, Oil Red O staining
Assay type: cell-based
Conditions: 10 μM LS-102 added at induction of differentiation (IBMX, dexamethasone, insulin) and again at the medium change, DMSO control, microscope (FIG. 5)
Protocol: 3T3-L1 cells were cultured for 3 days after reaching confluence in DMEM (10% FBS, High Glucose). Differentiation was induced by adding 500 μM IBMX, 1 μM dexamethasone and 5 μg/ml of insulin. 10 μM LS-102 (synoviolin ubiquitination activity inhibitor) or DMSO were added at the same time. After culturing for 3 days, the medium was replaced with medium containing 4 μg/ml of insulin followed by the addition of 10 μM LS-102 or DMSO. After again culturing for 3 days, the medium was replaced with DMEM (10% FES, High Glucose) followed by additionally culturing for 3 days. With respect to siRNA, 200 pmol of siRNA Syno770 was introduced using Lipofectamine 2000 two days prior to inducing differentiation.
After washing the 3T3-L1 cells with PBS(−), the cells were fixed with 10% formalin. The cells were then washed with PBS(−) and transferred to 60% isopropanol. The cells were stained for 20 minutes with 18 mg/ml of Oil Red O/Isopropanol and then washed with 60% isopropanol and PBS(−) followed by observing with a microscope.

CCNCCN(CC)c1nc(Nc2ccc3ncoc3c2)nc(N[C@@H](C)C2CCCCC2)n1 [LI102]
number of differentiated adipocytes in comparison with the control: the number of differentiated adipocytes was lower in comparison with the control
